Results taken from US9688651B2, “Geranyl geranyl acetone analogs and uses thereof” (NYKEN Holding B.V., priority 2012, dated 2017).

Experiments:
HSP40 = HSP40 mRNA (qPCR) in HL-1 cardiomyocytes after mild heat shock; assay type: cell-based, mouse; details: then compound 10 μM for 6 hours
Method: (§1) HL-1 cardiomyocytes were subjected to a mild heat shock of 44° C. for 10 minutes. After a recovery of 10 minutes (37 degrees 5% CO2), compounds were added in a final concentration of 10 μM (dissolved in DMSO, final concentration 0.1%). To control myocytes, 0.1% DMSO was added. After six hours the cells were lysed in RIPA buffer and used for Western blotting as described previously.^3, 10 Compounds were also screened for their ability to upregulate HSP gene expression. Hereto, HL-1 cardiomyocytes were first subjected to a mild heat shock which activates the Heat Shock Factor. After the mild heat shock, compound (10 μM) was added to the medium of HL-1 cardiomyocytes for 6 hours, followed by determination of HSP70, HSP25, HSP90 and HSP40 which are targets of the heat shock factor 1 (HSF1) transcription factor. In addition, we determined mRNA levels of the gene encoding the glucose-responsive protein 78 (Grp78) which is HSF1-independent.

HSP25 = HSP25 mRNA (qPCR) in HL-1 cardiomyocytes after mild heat shock; assay type: cell-based, mouse; details: then compound 10 μM for 6 hours
Method: as §1

HSP70 [1] = test: HSP70 protein boosting in HL-1 cardiomyocytes after mild heat shock (Western blot); assay type: cell-based, mouse; design: key to HSP boosting HL-1 cardiomyocytes Protein HSP70: 0 = no induction HSP levels; + = 2-10-fold induction; ++ = 10-30-fold induction; +++ = > 30-fold induction; details: for induction of mammalian HSP70 protein expression: HL-1, mild heat shock, 10 μM, 6 hours; for HSP boosting HL-1 cardiomyocytes Protein HSP70: mild heat shock 44°C 10 min, then compound 10 μM for 6 hours, Western blot
Method: HL-1 atrial myocytes, a cell line derived from adult mouse atria were obtained from Dr. William Claycomb (Louisiana State University, New Orleans, La., USA). The myocytes were maintained in Complete Claycomb Medium (JRH, UK) supplemented with 100 μM norepinephrine stock (consisting of 10 mM norepinephrine (Sigma, The Netherlands) dissolved in 0.3 mM L-ascorbic acid (Sigma)), 4 mM L-glutamine (Gibco, The Netherlands) and 10% FBS (Sigma). The myocytes were cultured in flasks coated with 0.02% gelatin (Sigma), in a 5% CO2 atmosphere at 37° C.
HL-1 cardiomyocytes were subjected to a mild heat shock of 44° C. for 10 minutes. After a recovery of 10 minutes (37 degrees 5% CO2), compounds were added in a final concentration of 10 μM (dissolved in DMSO, final concentration 0.1%). To control myocytes, 0.1% DMSO was added. After six hours the cells were lysed in RIPA buffer and used for Western blotting as described previously.^3, 10
(§2) Western-blot analysis was performed as described previously^3, 10. Equal amount of protein in SDS-PAGE sample buffer was sonicated before separation on 10% PAA-SDS gels. After transfer to nitrocellulose membranes (Stratagene, The Netherlands), membranes were incubated with primary antibodies against HSP25 (Stressgen, The Netherlands, SPA-801, 1:1000), HSP27 (Stressgen, SPA-800, 1:1000), HSP70 (Stressgen, SPA-810, 1:1000), GAPDH (Affinity Reagents, The Netherlands) or PARP (Santa Cruz, The Netherlands, sc-7150, 1:500). Horseradish peroxidase-conjugated anti-mouse or anti-rabbit (Santa-Cruz Biotechnology, The Netherlands) was used as secondary antibody. Signals were detected by the ECL-detection method (Amersham, The Netherlands) and quantified by densitometry using GeneTools software from Syngene (The Netherlands).
Compounds were also screened for HSP70 boosting effects. Hereto, HL-1 cardiomyocytes were first subjected to a mild heat shock which activates the Heat Shock Factor. After the mild heat shock, compound (10 μM) was added to the medium of HL-1 cardiomyocytes for 6 hours, followed by determination of the HSP70 amount.

[2] = system: glucose-responsive protein 78 (Grp78); test: Grp78 mRNA (qPCR, HSF1-independent) in HL-1 cardiomyocytes; assay type: cell-based, mouse; design: key to HSP boosting HL-1 cardiomyocytes mRNA (qPCR) Grp78 Not HSF1: 0 = no induction HSP levels; + = 2-10-fold induction; ++ = 10-30-fold induction; +++ = > 30-fold induction; details: for upregulation of Grp78 mRNA: HL-1, mild heat shock, 10 μM, 6 hours; for HSP boosting HL-1 cardiomyocytes mRNA (qPCR) Grp78 Not HSF1: mild heat shock, then compound 10 μM for 6 hours
Method: as §1

HSP70 [3] = test: HSP70 mRNA (qPCR) in HL-1 cardiomyocytes after mild heat shock; assay type: cell-based, mouse; details: then compound 10 μM for 6 hours
Method: as §1

[4] = system: HSP70, HSP25, HSP90 and HSP40; test: Upregulation of HSP gene expression (HSF1 targets) in HL-1 cardiomyocytes; assay type: cell-based, mouse; details: HL-1, mild heat shock, 10 μM, 6 hours
Method: as §1

HSP90 = HSP90 mRNA (qPCR) in HL-1 cardiomyocytes after mild heat shock; assay type: cell-based, mouse; details: then compound 10 μM for 6 hours
Method: as §1

HSP70 [5] = test: HSP70 Western blot in MCF-7 cells; assay type: cell-based, human; design: key: + = P < 0.05; ++ = P < 0.01; +++ = P < 0.001; details: MCF-7 lysate, 16-20 hours
Method: (§3) MCF-7 breast cancer cells were cultured in DMEM supplemented with 10% FCS. Test compounds were added to the medium in a final concentration of […] for 16-20 hours. Ratio death and living cells was determined by using trypan blue staining of death cells. The cell pellets were lysed in RIPA buffer and used for Western blot analysis.
as §2

[6] = system: MCF-7 breast cancer cells; test: MCF-7 cell death, ratio death/living cells (trypan blue); assay type: cell-based, human; design: key to Cell Death MCF-7 cancer cells Death/living 100 μM: 0 = no dead cells; + = P < 0.05; ++ = P < 0.01; +++ = P < 0.001; details: 100 μM; 16-20 hours; trypan blue
Method: MCF-7 breast cancer cells were cultured in DMEM supplemented with 10% FCS. […] Ratio death and living cells was determined by using trypan blue staining of death cells. The cell pellets were lysed in RIPA buffer and used for Western blot analysis.
Since we observed that some compounds aggravate tachypacing-induced contractile dysfunction, we next investigated if these compounds can induce programmed cell death in a human breast cancer cell-line MCF-7. […] In total 28 compounds were tested for cell death. […] GGA was used as a control as well as non-treated MCF-7 cells. […] The findings indicate that GGA-like compounds which aggravate heart failure can induce programmed cell death in MCF-7 breast cancer cell-line.

HSP27 = HSP27 Western blot in MCF-7 cells; assay type: cell-based, human; design: key: + = P < 0.05; ++ = P < 0.01; +++ = P < 0.001; details: MCF-7 lysate, 16-20 hours
Method: as §3, §2

HSP70 [7] = test: Hsp70 induction in murine proximal tubule (MPT) cells (Western blot); assay type: cell-based; details: 40 μM, 5 hours, outperformed positive control GGA
Method: Murine proximal tubule (MPT) cells were isolated and cultured as described previously (Borkan et al. Heat stress ameliorates ATP depletion-induced sublethal injury in mouse proximal tubule cells. Am. J. Physiol. 1997; F347-55).
The MPT cells were exposed to 40 μM of compound for 5 hours, after which the cells were harvested in RIPA buffer followed by Western blotting.
For Western-blot analysis, equal amount of protein in SDS-PAGE sample buffer was separated on 10% PAA-SDS gels. After transfer to nitrocellulose membranes (Stratagene, USA), membranes were incubated with primary antibodies against HSP70 (Enzo C92F3A/StressGen SP810) or beta-actin (Sigma A541). Horseradish peroxidase-conjugated anti-mouse or anti-sheep (Jackson ImmunoRes) was used as secondary antibody. Signals were detected by the ECL-detection method (Amersham).

PARP = PARP cleavage in MCF-7 cells (Western blot); assay type: cell-based, human; design: key to Cell Death MCF-7 cancer cells PARP: 0 = no dead cells; + = P < 0.05; ++ = P < 0.01; +++ = P < 0.001; details: MCF-7 lysate, Western blot, 16-20 hours
Method: as §3, §2
Since we observed that some compounds aggravate tachypacing-induced contractile dysfunction, we next investigated if these compounds can induce programmed cell death in a human breast cancer cell-line MCF-7. Hereto, MCF-7 cells were incubated for 16 hours with 10 μM of a test compound after which the number of death and living cells was determined. In total 28 compounds were tested for cell death. […] GGA was used as a control as well as non-treated MCF-7 cells. […] The findings indicate that GGA-like compounds which aggravate heart failure can induce programmed cell death in MCF-7 breast cancer cell-line.

Compound	HSP boosting HL-1 cardiomyocytes mRNA (qPCR) HSP 40 (HSP40)	HSP boosting HL-1 cardiomyocytes mRNA (qPCR) HSP 25 (HSP25)	induction of mammalian HSP70 protein expression (HSP70 [1])	upregulation of Grp78 mRNA [2]	HSP boosting HL-1 cardiomyocytes mRNA (qPCR) Grp78 Not HSF1 [2]	HSP boosting HL-1 cardiomyocytes mRNA (qPCR) HSP 70 (HSP70 [3])	induction of HSP gene expression [4]	HSP boosting HL-1 cardiomyocytes mRNA (qPCR) HSP 90 (HSP90)	Cell Death MCF-7 cancer cells HSP 70 (HSP70 [5])	HSP boosting HL-1 cardiomyocytes Protein HSP70 (HSP70 [1])	Cell Death MCF-7 cancer cells Death/living 100 μM [6]	Cell Death MCF-7 cancer cells HSP 27 (HSP27)	induction of HSP70 expression in renal (MPT) cells (HSP70 [7])	Cell Death MCF-7 cancer cells PARP (PARP)
CCOC(=O)C(Cc1ccccc1)C(=O)CC/C=C(\C)CCC=C(C)C (stereo not shown) [Compound 23]	+ (+ = 2-10-fold induction)	+ (+ = 2-10-fold induction)	potent inducers	no upregulation	0	++ (++ = 10-30-fold induction)	strong inducers	+ (+ = 2-10-fold induction)	–	–	–	–	–	–
CC(C)=CCC/C(C)=C/CCc1cc(C)[nH]n1 [Compound 32]	–	–	–	–	–	–	–	–	0	+ (+ = 2-10-fold induction)	0	+ (+ = P < 0.05)	strong inducers	0
CC(C)=CCC/C(C)=C/CN1C(=O)CCC1=O [Compound 47]	–	–	–	–	–	–	–	–	–	–	–	–	strong inducers	–
CC(C)=CCC/C(C)=C/CNC(=O)CN(C)C [Compound 49]	+++ (+++ = > 30-fold induction)	+++ (+++ = > 30-fold induction)	potent inducers	–	0	–	–	+++ (+++ = > 30-fold induction)	0	+++ (+++ = > 30-fold induction)	0	0	strong inducers	0
CCOC(=O)CC(=O)c1ccccc1O [Compound 60, Ethyl 3-(2-hydroxyphenyl)-3-oxopropanoate]	–	–	potent inducers	no upregulation	–	–	strong inducers	–	–	–	–	–	–	–
CCOC(=O)C(CC)C(=O)CC/C=C(\C)CCC=C(C)C (stereo not shown) [Compound 69]	–	–	–	–	–	–	–	–	–	0	–	–	strong inducers	–
CCOC(=O)C(C)(C)C(=O)CC/C=C(\C)CCC=C(C)C [Compound 76, (E)-ethyl 2,2,7,11-tetramethyl-3-oxododeca-6,10-dienoate]	+ (+ = 2-10-fold induction)	++ (++ = 10-30-fold induction)	potent inducers	no upregulation	0	+++ (+++ = > 30-fold induction)	strong inducers	++ (++ = 10-30-fold induction)	–	+++ (+++ = > 30-fold induction)	–	–	–	–
CC(=O)N[C@@H](C)C(=O)NC/C=C(\C)CCC=C(C)C [Compound 95]	+ (+ = 2-10-fold induction)	+ (+ = 2-10-fold induction)	potent inducers	–	0	–	–	++ (++ = 10-30-fold induction)	–	+++ (+++ = > 30-fold induction)	–	–	strong inducers	–
CC(=O)OC/C=C(\C)CC/C=C(\C)COC1CCCCO1 (stereo not shown) [Compound 106]	–	–	–	–	–	–	–	–	–	–	–	–	strong inducers	–
CC(=O)CC/C=C(\C)CC/C=C(\C)CC/C=C(\C)CCC=C(C)C [GGA, (5E,9E,13E)-6,10,14,18-tetramethylnonadeca-5,9,13,17-tetraen-2-one, reference compound]	+ (+ = 2-10-fold induction)	++ (++ = 10-30-fold induction)	–	–	0	+ (+ = 2-10-fold induction)	–	++ (++ = 10-30-fold induction)	0	++ (++ = 10-30-fold induction)	0	+ (+ = P < 0.05)	–	0
